Results from patent publication US9669035B2, “Combinations comprising PDE 2 inhibitors such as 1-aryl-4-methyl-[1,2,4]triazolo-[4,3-A]]quinoxaline compounds and PDE 10 inhibitors for use in the treatment of neurological of metabolic disorders” (Janssen Pharmaceutica NV, priority 2012, dated 2017).
Where two headings read alike, the source gives them in different places.

How the values were obtained:
[1] = system: Apomorphine-induced agitation in rats; assay: Inhibition of apomorphine-induced agitation in rats in combination with Compound A and Compound B (FIGS. 4, 5); format: in vivo; conditions: Rattus norvegicus, sc
Procedure: Shown are individual scores (open and closed circles for PDE2-i at 0 and 10 mg/kg, respectively) and median scores (horizontal lines) for agitation per dose group. In FIG. 4: * p<0.05, ** p<0.01, *** p<0.001 (Bonferroni posttests 0 vs 10 mg/kg).
In FIG. 5: * p<0.05 (Dunnett's Multiple Comparison Test vs. 0 mg/kg)
Shown are individual scores (open and closed circles for PDE2-i at 0 and 10 mg/kg, respectively) and median scores (horizontal lines) for agitation per dose group. […] This is also reflected in the listed ED50 values.

[2] = system: d-Amphetamine-induced hyperlocomotion in rats; assay: Inhibition of d-amphetamine-induced hyperlocomotion in rats in combination with Compound A and Compound B (FIGS. 9, 10); format: in vivo; conditions: Rattus norvegicus, sc
Procedure: Shown are individual values (open and closed circles for PDE2-i at 0 and 10 mg/kg, respectively) and median values (horizontal lines) for distance traveled per dose group. The dotted horizontal lines represent the criteria adopted for drug-induced effects (<5500 and <1100 cm). In FIG. 9: * p<0.05, ** p<0.01, *** p<0.001 (Bonferroni posttests 0 vs 10 mg/kg).
The dotted horizontal lines represent the critical levels for drug-induced effects (<5500 cm and <1100 cm).
Shown are individual values (open and closed circles for PDE2-i at 0 and 10 mg/kg, respectively) and median values (horizontal lines) for distance traveled per dose group. The dotted horizontal lines represent the criteria adopted for drug-induced effects (<5500 and <1100 cm). […] This is also reflected in the listed ED50 values.

[3] = target: Rat recombinant PDE10A (rPDE10A2) (Rattus norvegicus (Rat), UniProt Q9QYJ6); assay: In vitro assay PDE10A (SPA, 3H-cAMP); format: biochemical
Chain of Rat recombinant PDE10A (rPDE10A2) (Q9QYJ6 whole entry): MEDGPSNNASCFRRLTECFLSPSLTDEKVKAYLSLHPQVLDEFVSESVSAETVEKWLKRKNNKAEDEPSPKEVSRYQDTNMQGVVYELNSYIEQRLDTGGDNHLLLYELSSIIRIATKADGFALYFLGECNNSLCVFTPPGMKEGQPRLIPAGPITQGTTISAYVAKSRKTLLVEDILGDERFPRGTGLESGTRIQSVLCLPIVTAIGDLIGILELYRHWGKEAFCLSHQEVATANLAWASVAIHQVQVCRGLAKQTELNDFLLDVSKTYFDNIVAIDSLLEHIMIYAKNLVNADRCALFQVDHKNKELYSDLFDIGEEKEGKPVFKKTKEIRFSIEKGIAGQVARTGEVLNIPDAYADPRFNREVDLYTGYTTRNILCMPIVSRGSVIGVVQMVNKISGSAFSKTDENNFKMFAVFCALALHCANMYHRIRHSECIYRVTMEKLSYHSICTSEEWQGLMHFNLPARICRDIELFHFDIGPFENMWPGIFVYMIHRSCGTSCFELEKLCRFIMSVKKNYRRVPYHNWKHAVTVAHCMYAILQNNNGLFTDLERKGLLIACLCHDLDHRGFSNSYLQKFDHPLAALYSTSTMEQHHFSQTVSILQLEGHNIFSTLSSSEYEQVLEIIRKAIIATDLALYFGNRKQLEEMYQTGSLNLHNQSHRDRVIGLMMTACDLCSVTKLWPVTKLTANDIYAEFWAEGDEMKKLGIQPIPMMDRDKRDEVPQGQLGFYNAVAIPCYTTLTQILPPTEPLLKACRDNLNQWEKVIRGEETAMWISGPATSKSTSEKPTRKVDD

[4] = system: Apomorphine-induced agitation in rats; assay: Inhibition of apomorphine-induced agitation in rats (APO)
[5] = system: d-Amphetamine-induced hyperlocomotion in rats; assay: d-Amphetamine-induced hyperlocomotion in rats: potentiation of the effect of MP-10; format: in vivo, rat; conditions: d-amphetamine (1.25 mg/kg, s.c.) + MP-10 (2.5 mg/kg, s.c.)
[6] = system: Apomorphine-induced agitation in rats; assay: Inhibition of apomorphine-induced agitation in rats in combination with MP-10; format: in vivo, rat; conditions: SC, MP-10 (0.63 mg/kg) + apomorphine (1.0 mg/kg) i.v.
Procedure: Inhibition of Apomorphine-induced Agitation in Rats in combination with MP-10 but the animals were simultaneously challenged with MP-10 (0.63 mg/kg) in addition to apomorphine (1.0 mg/kg) via one injection (2 ml/kg, i.v.), at a fixed time interval (standard 1 h) after s.c. or p.o. dosing of test compound or solvent. Twelve times, every 5 min, the intensity of agitation was scored 0 to 3.

[7] = read-out: ED50 (95% confidence limits) for reducing agitation score to <5, PDE10-i s.c., -1 h, co-treatment with B-1a 0 mg/kg
[8] = read-out: ED50 (95% confidence limits) for reducing agitation score to <5, PDE10-i s.c., -1 h, co-treatment with B-1a 10 mg/kg s.c.
[9] = read-out: ED50 (95% confidence limits) for reducing agitation score to <10, PDE10-i s.c., -1 h, co-treatment with B-1a 0 mg/kg
[10] = read-out: ED50 (95% confidence limits) for reducing agitation score to <10, PDE10-i s.c., -1 h, co-treatment with B-1a 10 mg/kg s.c.
[11] = read-out: ED50 (95% confidence limits) for reducing agitation score to <21, PDE10-i s.c., -1 h, co-treatment with B-1a 0 mg/kg
[12] = read-out: ED50 (95% confidence limits) for reducing agitation score to <21, PDE10-i s.c., -1 h, co-treatment with B-1a 10 mg/kg s.c.
[13] = read-out: ED50 (95% confidence limits) for reducing distance traveled to <1100 cm, PDE10-i s.c., -1 h, co-treatment with B-1a 0 mg/kg
[14] = read-out: ED50 (95% confidence limits) for reducing distance traveled to <1100 cm, PDE10-i s.c., -1 h, co-treatment with B-1a 10 mg/kg s.c.
[15] = read-out: ED50 (95% confidence limits) for reducing distance traveled to <5500 cm, PDE10-i s.c., -1 h, co-treatment with B-1a 0 mg/kg
[16] = read-out: ED50 (95% confidence limits) for reducing distance traveled to <5500 cm, PDE10-i s.c., -1 h, co-treatment with B-1a 10 mg/kg s.c.
[17] = SC, lowest dose at which >=67% tested animals respond

COCCc1ccc(-c2c(C)nc3c(N4CCOCC4)ccnn23)cn1 [Compound A]
ED50 [1, 7]: ≥ 40 mg/kg
ED50 [1, 8]: 12.4 mg/kg
ED50 [1, 9]: 16.3 mg/kg
ED50 [1, 10]: 6.2 mg/kg
ED50 [1, 11]: 2.71 mg/kg
ED50 [1, 12]: 3.1 mg/kg
ED50 [2, 13]: > 40 mg/kg
ED50 [2, 14]: 6.2 mg/kg
ED50 [2, 15]: 0.89 mg/kg
ED50 [2, 16]: 0.67 mg/kg

CCCCOc1ccc(Cl)c(-c2nnc3c(C)nc4ccc(CN5CCOCC5)cc4n23)c1.Cl [Compound B-2, 1-(5-Butoxy-2-chlorophenyl)-4-methyl-8-(morpholin-4-ylmethyl) [1,2,4]triazolo-[4,3-a]quinoxaline hydrochloride]
PIC50 PDE10 ([3]; -log IC50 expressed in mol/L): 5.79

CCNCc1ccc2nc(C)c3nnc(-c4ccccc4Cl)n3c2c1 [Compound B-4, N-{[1-(2-Chlorophenyl)-4-methyl[1,2,4]triazolo[4,3-a]quinoxalin-8-yl]methyl}-ethanamine]
PIC50 PDE10 ([3]; -log IC50 expressed in mol/L): 6.8
Dose at max effect ([4]; SC): 10
Max effect (lowest median cumulative agitation score) ([4]; SC, at the dose at max effect): 21
LAD (lowest active dose) [4, 17]: >10

Cc1nc2ccc(CN3CCOCC3)cc2n2c(-c3c(F)cccc3Cl)nnc12 [Compound B-5, 1-(2-Chloro-6-fluorophenyl)-4-methyl-8-(morpholin-4-ylmethyl) [1,2,4]triazolo[4,3-a]quinoxaline]
Dose at max effect ([4]; SC): 40
Max effect (lowest median cumulative agitation score) ([4]; SC, at the dose at max effect): 1
LAD (lowest active dose) [4, 17]: 0.63

Cc1nc2ccc(CN3CCOCC3)cc2n2c(-c3cc(OC(C)C)ccc3Cl)nnc12 [Compound B-6]
Distance Total <2500 cm Effect ([5]; PO, Time -60, dose 10): 5033 cm
Distance Total <2500 cm Effect ([5]; SC, Time -60, dose 0.63): 3096 cm
Distance Total <2500 cm Effect ([5]; SC, Time -60, dose 2.5): 1206 cm
Distance Total <2500 cm Effect ([5]; SC, Time -60, dose 10): 743.7 cm
PIC50 PDE10 ([3]; -log IC50 expressed in mol/L): 5.73
Inh. of agitation < 10 Effect (cumulative agitation score) ([6]; Time 60, dose 2.5): 13
Inh. of agitation < 10 Effect (cumulative agitation score) ([6]; Time 60, dose 10): 1

CCOc1ccc(Cl)c(-c2nnc3c(C)nc4ccc(CN5CCOCC5)cc4n23)c1 [Compound B-7]
PIC50 PDE10 ([3]; -log IC50 expressed in mol/L): 6.58
Dose at max effect ([4]; SC): 10
Max effect (lowest median cumulative agitation score) ([4]; SC, at the dose at max effect): 24
LAD (lowest active dose) [4, 17]: >10

CCCOc1ccc(Cl)c(-c2nnc3c(C)nc4ccc(CN5CCOCC5)cc4n23)c1 [Compound B-8]
PIC50 PDE10 ([3]; -log IC50 expressed in mol/L): 6.49
Dose at max effect ([4]; SC): 10
Max effect (lowest median cumulative agitation score) ([4]; SC, at the dose at max effect): 23
LAD (lowest active dose) [4, 17]: >10

Cc1nc2ccc(CN3CCOCC3)cc2n2c(-c3cc(F)ccc3Cl)nnc12 [Compound B-9]
PIC50 PDE10 ([3]; -log IC50 expressed in mol/L): 7.07
Dose at max effect ([4]; SC): 10
Max effect (lowest median cumulative agitation score) ([4]; SC, at the dose at max effect): 9
LAD (lowest active dose) ([4]; rat, in vivo): 2.5

COc1ccc(Cl)c(-c2nnc3c(C)nc4ccc(CN5CCOCC5)cc4n23)c1 [Compound B-10]
PIC50 PDE10 ([3]; -log IC50 expressed in mol/L): 6.98
Dose at Max Effect ([4]; PO): 10
Max effect (lowest median cumulative agitation score) ([4]; PO, at the dose of column Dose at Max Effect): 21
LAD (lowest active dose) ([4]; rat, in vivo): >10

COc1cncc(-c2nnc3c(C)nc4ccc(CN5CCOCC5)cc4n23)c1 [Compound B-12]
PIC50 PDE10 ([3]; -log IC50 expressed in mol/L): 6.57
Dose at max effect ([4]; SC): 10
Max effect (lowest median cumulative agitation score) ([4]; SC, at the dose at max effect): 21
LAD (lowest active dose) [4, 17]: >10

Cc1nc2ccc(CN(C)C)cc2n2c(-c3ccccc3Cl)nnc12 [Compound B-13]
PIC50 PDE10 ([3]; -log IC50 expressed in mol/L): 6.97
Dose at max effect ([4]; SC): 10
Max effect (lowest median cumulative agitation score) ([4]; SC, at the dose at max effect): 20.5
LAD (lowest active dose) ([4]; rat, in vivo): >10

CCCOc1ccc(Cl)c(-c2nnc3c(C)nc4ccc(CNCC)cc4n23)c1 [Compound B-14]
PIC50 PDE10 [3]: 5.75

CCCOc1ccc(Cl)c(-c2nnc3c(C)nc4ccc(CN(C)C)cc4n23)c1 [Compound B-15]
PIC50 PDE10 [3]: 5.83

CCCOc1cncc(-c2nnc3c(C)nc4ccc(CN5CCOCC5)cc4n23)c1 [Compound B-16]
PIC50 PDE10 ([3]; -log IC50 expressed in mol/L): 5.21

Cc1nc2ccc(CN(C)C)cc2n2c(-c3cc(OC(C)C)ccc3Cl)nnc12 [Compound B-17]
Distance Total <2500 cm Effect ([5]; SC, Time -60, dose 2.5): 4133 cm
Distance Total <2500 cm Effect ([5]; SC, Time -60, dose 10): 1721 cm
PIC50 PDE10 [3]: 5.8
Inh. of agitation < 10 Effect (cumulative agitation score) ([6]; Time 60, dose 10): 12

CCOc1ccc(Cl)c(-c2nnc3c(C)nc4ccc(CN(C)C)cc4n23)c1 [Compound B-18]
Distance Total <2500 cm Effect ([5]; SC, Time -60, dose 10): 3369 cm
PIC50 PDE10 [3]: 6.5
Inh. of agitation < 10 Effect (cumulative agitation score) ([6]; Time 60, dose 10): 17
Dose at max effect ([4]; SC): 10
Max effect (lowest median cumulative agitation score) ([4]; SC, at the dose at max effect): 22
LAD (lowest active dose) ([4]; rat, in vivo): >10

CCNCc1ccc2nc(C)c3nnc(-c4cc(OC(C)C)ccc4Cl)n3c2c1 [Compound B-19]
PIC50 PDE10 [3]: 5.07

CCCCOc1ccc(Cl)c(-c2nnc3c(C)nc4ccc(CNC(C)C)cc4n23)c1 [Compound B-20]
PIC50 PDE10 [3]: 5.38

CCCCOc1cncc(-c2nnc3c(C)nc4ccc(CNCC)cc4n23)c1 [Compound B-21]
PIC50 PDE10 [3]: <5

CCNCc1ccc2nc(C)c3nnc(-c4cc(OCC)ccc4Cl)n3c2c1 [Compound B-22a]
PIC50 PDE10 [3]: 6.04

CCCCOc1cncc(-c2nnc3c(C)nc4ccc(CNC(C)C)cc4n23)c1 [Compound B-23]
PIC50 PDE10 [3]: <5

CCCOc1cncc(-c2nnc3c(C)nc4ccc(CNCC)cc4n23)c1 [Compound B-24]
PIC50 PDE10 [3]: <5

CCCCOc1ccc(Cl)c(-c2nnc3c(C)nc4ccc(CNC)cc4n23)c1 [Compound B-25]
Distance Total <2500 cm Effect ([5]; SC, Time -60, dose 10): 3921 cm
PIC50 PDE10 [3]: 5.04

Cc1nc2ccc(CN3CCOCC3)cc2n2c(-c3cncc(OCC4CC4)c3)nnc12 [Compound B-26]
Distance Total <2500 cm Effect ([5]; SC, Time -60, dose 2.5): 3061 cm
Distance Total <2500 cm Effect ([5]; SC, Time -60, dose 10): 1653 cm
PIC50 PDE10 ([3]; -log IC50 expressed in mol/L): 5.44
Inh. of agitation < 10 Effect (cumulative agitation score) ([6]; Time 60, dose 10): 17

CCCCOc1cncc(-c2nnc3c(C)nc4ccc(CNC)cc4n23)c1 [Compound B-28]
PIC50 PDE10 [3]: <5

CCCCOc1cc(-c2nnc3c(C)nc4ccc(CN5CCOCC5)cc4n23)cnc1Cl [Compound B-29]
PIC50 PDE10 ([3]; -log IC50 expressed in mol/L): <5

Cc1nc2ccc(CN(C)C)cc2n2c(-c3cncc(OCC4CC4)c3)nnc12 [Compound B-30]
PIC50 PDE10 [3]: <5

Cc1nc2ccc(CNC(C)C)cc2n2c(-c3cncc(OCC4CC4)c3)nnc12 [Compound B-31]
PIC50 PDE10 [3]: 5.84

CCNCc1ccc2nc(C)c3nnc(-c4cncc(OCC5CC5)c4)n3c2c1 [Compound B-32]
PIC50 PDE10 [3]: <5

Cc1nc2c(N3CCOCC3)nccn2c1-c1ccc(C2CCOCC2)nc1 [Compound B]
ED50 [1, 7]: ≥ 40 mg/kg
ED50 [1, 8]: 10.8 mg/kg
ED50 [1, 9]: 32 mg/kg
ED50 [1, 10]: 6.2 mg/kg
ED50 [1, 11]: 2.71 mg/kg
ED50 [1, 12]: 2.36 mg/kg
ED50 [2, 13]: > 40 mg/kg
ED50 [2, 14]: 16.3 mg/kg
ED50 [2, 15]: 3.1 mg/kg
ED50 [2, 16]: 2.04 mg/kg
